Source: the supplement of paper PMC10307832

Assays:
Test in all cases: relative viability (nuclei count vs DMSO), 5 days (fraction); higher = more cells survive
[1] = compound: CN(C)CC1=CC(=CC=C1)N=C(C2=CC=CC=C2)C3=C(NC4=C3C=CC(=C4)C(=O)N(C)C)O + N=C(N)NC(=N)NCCc1ccccc1 [Phenformin] (partner 250 µM)
In short: (§1)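 Values are medians from duplicate plates. Each reflects relative viability, defined as the nuclei count of treated wells over that of vehicle wells. Lung cancer cell lines in 1536-well plates were pin-tool dosed one day after seeding with one drug alone or with a fixed anchor-drug dose plus five library-drug doses (not always all listed) in √10 steps, then fixed, stained and imaged at 4× after 5 days.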

[2] = compound: CN(C)CC1=CC(=CC=C1)N=C(C2=CC=CC=C2)C3=C(NC4=C3C=CC(=C4)C(=O)N(C)C)O + CS(=O)(=O)CCNCc1ccc(-c2ccc3ncnc(Nc4ccc(OCc5cccc(F)c5)c(Cl)c4)c3c2)o1 [Lapatinib] (partner 2 µM)
In short: as §1

[3] = compound: CN(C)CC1=CC(=CC=C1)N=C(C2=CC=CC=C2)C3=C(NC4=C3C=CC(=C4)C(=O)N(C)C)O + O=C(c1cc(Cc2n[nH]c(=O)c3ccccc23)ccc1F)N1CCN(C(=O)C2CC2)CC1 [Olaparib] (partner 8 µM)
In short: as §1

[4] = compound: CN(C)CC1=CC(=CC=C1)N=C(C2=CC=CC=C2)C3=C(NC4=C3C=CC(=C4)C(=O)N(C)C)O + CC(=O)Nc1cccc(-n2c(=O)n(C3CC3)c(=O)c3c(Nc4ccc(I)cc4F)n(C)c(=O)c(C)c32)c1 [Trametinib] (partner 0.02 µM)
In short: as §1

| Cell Line | relative viability ([1]; first compound 0.08 µM) | relative viability ([1]; first compound 0.253 µM) | relative viability ([1]; first compound 0.8 µM) | relative viability ([1]; first compound 2.53 µM) | relative viability ([1]; first compound 8 µM) | relative viability ([2]; first compound 0.08 µM) | relative viability ([2]; first compound 0.253 µM) | relative viability ([2]; first compound 0.8 µM) | relative viability ([2]; first compound 2.53 µM) | relative viability ([2]; first compound 8 µM) | relative viability ([3]; first compound 0.08 µM) | relative viability ([3]; first compound 0.253 µM) | relative viability ([3]; first compound 0.8 µM) | relative viability ([3]; first compound 2.53 µM) | relative viability ([3]; first compound 8 µM) | relative viability ([4]; first compound 0.08 µM) | relative viability ([4]; first compound 0.253 µM) | relative viability ([4]; first compound 0.8 µM) | relative viability ([4]; first compound 2.53 µM) | relative viability ([4]; first compound 8 µM) |
| --- | --- | --- | --- | --- | --- | --- | --- | --- | --- | --- | --- | --- | --- | --- | --- | --- | --- | --- | --- | --- |
| NCI-H1651 | 0.346 | 0.343 | 0.349 | 0.292 | 0.329 | 0.76 | 0.762 | 0.77 | 0.599 | 0.796 | 0.19 | 0.203 | 0.195 | 0.188 | 0.181 | 0.857 | 0.819 | 0.863 | 0.851 | 0.788 |
| NCI-H23 | 0.796 | 0.781 | 0.787 | 0.764 | 0.691 | 1.39 | 1.26 | 1.03 | 0.984 | 0.886 | – | 0.284 | 0.365 | 0.316 | 0.345 | – | 0.503 | 0.357 | 0.404 | 0.339 |
| NCI-H1355 | 0.483 | 0.463 | 0.421 | 0.421 | 0.392 | 1.08 | 1.02 | 0.955 | 0.948 | 0.885 | 0.771 | 0.707 | 0.772 | 0.752 | 0.732 | 0.472 | 0.407 | 0.314 | 0.392 | 0.51 |
| NCI-H596 | 0.693 | 0.625 | 0.769 | 0.806 | 0.742 | 1.12 | 1.32 | 0.971 | 1.05 | 1.13 | 0.692 | 0.718 | 0.695 | 0.69 | 0.861 | 0.809 | 0.873 | 0.921 | 0.821 | 0.723 |
| NCI-H1395 | 0.377 | 0.488 | 0.465 | 0.417 | 0.417 | 0.948 | 1.14 | 1.2 | 0.892 | 0.943 | 0.499 | 0.445 | 0.416 | 0.492 | 0.448 | 0.983 | 0.96 | 1.16 | 1 | 0.892 |
| NCI-H2170 | 0.404 | 0.4 | 0.408 | 0.381 | 0.384 | 0.278 | 0.277 | 0.286 | 0.273 | 0.271 | 0.672 | 0.552 | 0.491 | 0.535 | 0.554 | 0.899 | 0.892 | 0.758 | 0.917 | 0.809 |
| NCI-H2085 | 0.747 | 0.711 | 0.635 | 0.784 | 0.638 | 0.791 | 0.844 | 0.758 | 0.758 | 0.733 | 0.793 | 0.777 | 0.776 | 0.725 | 0.816 | 0.509 | 0.568 | 0.599 | 0.643 | 0.545 |
